One test has as its target MetRS (T. brucei) (Trypanosoma brucei brucei, UniProt Q38C91). Description: MetRS (T. brucei) ATP depletion assay using Kinase-Glo. The format is biochemical.
The test system of a further test is L. amaz. Description: L. amaz growth inhibition EC50. The format is cell-based. To be noted: read-out: F) L. amaz EC50.
In a further test the target is MetRS (S. aureus) (Staphylococcus aureus, UniProt Q5HII6). The test is described as follows: biochemical. To be noted: ATP depletion, Kinase-Glo; read-out: H) MetRS (S. aureus) ATP depletion assay using Kinase-Glo with modified cpd dilution method, IC50.
A further test deals with T. cruzi. The test is described as follows: T. cruzi growth inhibition EC50. The format is cell-based. To be noted: Trypanosoma cruzi; read-out: C) T. cruzi EC50.
The subject of test [1] is S. aureus MRSA (ATCC 43300). Description: S. aureus MRSA (ATCC 43300) MIC/EC50. To be noted: Staphylococcus aureus; S. aureus MRSA ATCC 43300; read-out: J) S. aureus MRSA (ATCC 43300) MIC/EC50, MIC. The format is cell-based.
A further test relates to S. aureus (ATCC 29213). The test is described as follows: S. aureus (ATCC 29213) MIC/EC50. The format is cell-based. The following applies: Staphylococcus aureus, ATCC29213; S. aureus ATCC 29213; read-out: I) S. aureus (ATCC 29213) MIC/EC50, MIC.
In the next test the test system is T. brucei. Description: Growth inhibition assay of T. brucei cell cultures (Alamar Blue, 48 h). The format is cell-based.
The mark [2] stands for this setting: Trypanosoma brucei; read-out: B) T. brucei EC50.

Consider 17 compounds from patent publication US10913736B2 (UNIVERSITY OF WASHINGTON, priority 2014, dated 2021).

Each structure is given as a SMILES string. Several values for one entry are separate records, joined by “and”; a condition that tells them apart may be missing. Equal values may be shown once. Read-outs that look alike come from different tables or passages of the source. Bounds are passed on as bounds.

Chain of MetRS (S. aureus) (Q5HII6 whole entry): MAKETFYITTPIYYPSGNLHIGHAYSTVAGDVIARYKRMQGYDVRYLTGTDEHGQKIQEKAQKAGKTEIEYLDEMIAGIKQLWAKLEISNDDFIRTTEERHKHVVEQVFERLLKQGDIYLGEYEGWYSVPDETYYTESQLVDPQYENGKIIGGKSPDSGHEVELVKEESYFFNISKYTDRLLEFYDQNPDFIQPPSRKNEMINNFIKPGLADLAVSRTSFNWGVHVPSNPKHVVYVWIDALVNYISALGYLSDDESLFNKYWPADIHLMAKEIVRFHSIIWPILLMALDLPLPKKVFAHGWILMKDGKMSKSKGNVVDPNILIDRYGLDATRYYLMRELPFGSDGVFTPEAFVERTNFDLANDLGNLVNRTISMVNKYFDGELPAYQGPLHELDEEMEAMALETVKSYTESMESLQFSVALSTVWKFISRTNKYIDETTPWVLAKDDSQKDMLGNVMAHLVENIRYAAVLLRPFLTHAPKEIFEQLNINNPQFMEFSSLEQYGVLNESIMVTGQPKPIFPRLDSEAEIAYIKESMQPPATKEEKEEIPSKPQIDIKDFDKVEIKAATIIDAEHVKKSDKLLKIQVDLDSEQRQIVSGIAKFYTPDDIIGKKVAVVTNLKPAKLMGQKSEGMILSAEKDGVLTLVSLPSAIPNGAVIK
Chain of MetRS (T. brucei) (Q38C91 entry or part of it): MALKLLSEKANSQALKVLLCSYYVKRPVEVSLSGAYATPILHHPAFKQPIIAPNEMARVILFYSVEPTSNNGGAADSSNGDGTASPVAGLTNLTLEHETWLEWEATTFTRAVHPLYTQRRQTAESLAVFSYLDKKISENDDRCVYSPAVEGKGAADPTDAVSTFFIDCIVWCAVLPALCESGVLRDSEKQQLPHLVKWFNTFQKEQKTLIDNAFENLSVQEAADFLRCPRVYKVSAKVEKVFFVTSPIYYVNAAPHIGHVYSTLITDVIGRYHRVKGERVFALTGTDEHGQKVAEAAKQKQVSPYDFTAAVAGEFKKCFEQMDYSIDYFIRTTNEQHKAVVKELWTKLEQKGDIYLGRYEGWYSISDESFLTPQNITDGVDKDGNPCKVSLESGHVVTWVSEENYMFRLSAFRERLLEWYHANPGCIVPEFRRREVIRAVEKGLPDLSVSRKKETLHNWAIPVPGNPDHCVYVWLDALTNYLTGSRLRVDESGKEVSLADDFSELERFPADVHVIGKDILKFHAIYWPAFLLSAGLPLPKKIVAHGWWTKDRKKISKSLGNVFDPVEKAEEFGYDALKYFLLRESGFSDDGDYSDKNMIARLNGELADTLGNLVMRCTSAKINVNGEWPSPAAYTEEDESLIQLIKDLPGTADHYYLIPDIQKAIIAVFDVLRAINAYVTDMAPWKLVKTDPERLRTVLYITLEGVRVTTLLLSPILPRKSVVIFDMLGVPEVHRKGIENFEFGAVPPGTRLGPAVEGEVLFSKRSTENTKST

On to `COc1ccc(Oc2cc(NCc3nc4ccc(F)nc4[nH]3)nc(Cl)n2)c(Cl)c1` [Compound 1796, 6-(2-chloro-4-methoxyphenoxy)-2-chloro-N-((5-fluoro-3H-imidazo[4,5-b]pyridin-2-yl)methyl)pyrimidin-4-amine], for which the IC50 against MetRS (T. brucei) is 17 nM; at MetRS (S. aureus), 55 nM. Also, the values for the concentration giving a half-maximal response (EC50) in the test on L. amaz and with T. cruzi were over 1000 nM and 521 nM, respectively.

Take `O=C(Cc1cc(Cl)cc(Cl)c1)N1CCCC(c2nc3nc(Cl)ccc3[nH]2)C1` (centres unmarked) [Compound 1762, 1-(3-(5-chloro-1H-imidazo[4,5-b]pyridin-2-yl)piperidin-1-yl)-2-(3,5-dichlorophenyl)ethanone]: the IC50 at MetRS (T. brucei) stood at 28 nM; on MetRS (S. aureus), 2880 nM. For the same compound, the MIC (in test [1]; in the test with S. aureus (ATCC 29213)) was over 10 µg/mL in each case. Also, the EC50 with T. brucei (setting [2]) worked out at 1060 nM.

Turning to `CN(CCNCc1cc(Cl)cc(Cl)c1)c1nc2ccc(Cl)nc2[nH]1` [Compound 1893, N-(2-(3,5-dichlorobenzylamino)ethyl)-5-chloro-N-methyl-1H-imidazo[4,5-b]pyridin-2-amine], the results for the half-inhibitory concentration (IC50) against MetRS (T. brucei) and on MetRS (S. aureus) were 8 nM and 296 nM, respectively. The EC50 amounted to 3780 nM in the test on L. amaz, 340 nM in the test with T. cruzi, 14.8 nM in the test on T. brucei (setting [2]) and 28.2 nM in the test with T. brucei (read-out: B) T. brucei EC50).

Regarding `CN(CCN[C@@H]1CCNc2c(Cl)cc(Cl)cc21)c1nc2nc(Cl)ccc2[nH]1` [Compound 1917, 5-chloro-N-(2-{[(4R)-6,8-dichloro-1,2,3,4-tetrahydroquinolin-4-yl]amino}ethyl)-N-methyl-3H-imidazo[4,5-b]pyridin-2-amine], the IC50 against MetRS (T. brucei) came out at 21 nM; on MetRS (S. aureus), 137 nM. Also, the EC50 with L. amaz was 663 nM; in the test on T. cruzi it was 15.7 nM.

`O=C(NCc1nc2ccc(F)nc2[nH]1)OCCc1ccc(Cl)cc1Cl` [Compound 1707, 2-(2,4-dichlorophenyl)ethyl N-({5-fluoro-3H-imidazo[4,5-b]pyridin-2-yl}methyl)carbamate]: the IC50 at MetRS (T. brucei) stood at 26 nM; at MetRS (S. aureus) it was 37 nM. Further, the figures for the concentration giving a half-maximal response (EC50) with L. amaz, in the test on T. cruzi and with T. brucei (setting [2]) were over 1000 nM, over 10000 nM and 1610 nM, respectively.

Take `CN(CCNCc1cc(Cl)cc(Cl)c1)c1nc2nc(F)ccc2[nH]1` [Compound 1913, N-(2-{[(3,5-dichlorophenyl)methyl]amino}ethyl)-5-fluoro-N-methyl-1H-imidazo[4,5-b]pyridin-2-amine]: the IC50 on MetRS (T. brucei) worked out at 26 nM; on MetRS (S. aureus) it was 691 nM. The EC50 in the test with L. amaz is over 1000 nM; with T. brucei (setting [2]), 113 nM.

Turning to `CN(CCN[C@@H]1CCNc2c(Cl)cc(Cl)cc21)c1nc2nc(F)ccc2[nH]1` [Compound 1919, (R)—N1-(6,8-dichloro-1,2,3,4-tetrahydroquinolin-4-yl)-N2-(5-fluoro-1H-imidazo[4,5-b]pyridin-2-yl)-N2-methylethane-1,2-diamine], the IC50 at MetRS (T. brucei) is 15 nM; at MetRS (S. aureus) it was 328 nM. Also, the EC50 in the test with L. amaz was determined as 1640 nM; in the test on T. cruzi, 88.8 nM; in the test on T. brucei (setting [2]), 6.31 nM; with T. brucei (read-out: B) T. brucei EC50), 9.45 nM.

Consider `O=c1[nH]c(Cc2ccc(Cl)cc2Cl)cn1Cc1nc2ccccc2[nH]1` [Compound 1907, 3-((1H-benzo[d]imidazol-2-yl)methyl)-5-(2,4-dichlorobenzyl)-1H-imidazol-2(3H)-one], for which the IC50 on MetRS (T. brucei) is 19 nM; on MetRS (S. aureus) it was 54 nM. The EC50 in the test with L. amaz was over 1000 nM; in the test with T. cruzi, 7670 nM; with T. brucei (setting [2]), 346 nM.

`Clc1cc(Br)cc(CN[C@H]2CCCN(c3nc4nc(Cl)ccc4[nH]3)C2)c1` [Compound 1912, (S)—N-(3-bromo-5-chlorobenzyl)-1-(5-chloro-1H-imidazo[4,5-b]pyridin-2-yl)piperidin-3-amine]: inhibition on MetRS (T. brucei) was half-maximal at 8 nM (IC50). The EC50 stood at 7730 nM in the test on L. amaz, 2250 nM in the test with T. cruzi and 70.6 nM in the test on T. brucei (setting [2]).

Turning to `COc1c(Cl)cc(Cl)cc1CN[C@H]1CCCN(c2nc3nc(Cl)ccc3[nH]2)C1` [Compound 1911, (S)-1-(5-chloro-1H-imidazo[4,5-b]pyridin-2-yl)-N-(3,5-dichloro-2-methoxybenzyl)piperidin-3-amine], on MetRS (T. brucei), the IC50 was found to be 21 nM. For the same compound, the EC50 in the test on L. amaz is 5150 nM; in the test with T. brucei (setting [2]), 357 nM.

As for `COc1ccc(Oc2cc(NCc3nc4ccc(F)nc4[nH]3)nc(N3CCN(c4cnccn4)CC3)n2)c(Cl)c1` [Compound 1797, 6-(2-chloro-4-methoxyphenoxy)-N-((5-fluoro-3H-imidazo[4,5-b]pyridin-2-yl)methyl)-2-(4-(pyrazin-2-yl)piperazin-1-yl)pyrimidin-4-amine], the figures for the IC50 against MetRS (T. brucei) and at MetRS (S. aureus) were 23 nM and 2 nM, respectively. The results for the EC50 in the test with L. amaz and in the test with T. cruzi were over 1000 nM and 432 nM, respectively.

For `O=C(Cc1cc(Cl)cc(Cl)c1)N1CCC[C@H](c2nc3cc(Cl)ccc3[nH]2)C1` [Compound 1758, (S)-1-(3-(5-chloro-1H-benzo[d]imidazol-2-yl)piperidin-1-yl)-2-(3,5-dichlorophenyl)ethanone], the IC50 worked out at 31 nM at MetRS (T. brucei) and 1040 nM at MetRS (S. aureus). The MIC (in test [1]; in the test on S. aureus (ATCC 29213)) was over 10 µg/mL throughout. Besides, in the test with T. brucei (setting [2]), the EC50 was 4650 nM.

`Clc1cc(Cl)cc(CNCC2CCCN2c2nc3nc(Cl)ccc3[nH]2)c1` (centres unmarked) [Compound 1916, 1-(1-(5-chloro-1H-imidazo[4,5-b]pyridin-2-yl)pyrrolidin-2-yl)-N-(3,5-dichlorobenzyl)methanamine] gave an IC50 at MetRS (T. brucei) of 58 nM. Also, the EC50 in the test on L. amaz was 9550 nM; in the test with T. brucei (setting [2]), 480 nM.

`Clc1cc(Cl)cc(CN[C@H]2CCCN(c3nc4nc(Cl)ccc4[nH]3)C2)c1` [Compound 1856, (S)-1-(5-chloro-1H-imidazo[4,5-b]pyridin-2-yl)-N-(3,5-dichlorobenzyl) piperidin-3-amine]: the IC50 amounted to 19 nM against MetRS (T. brucei) and 365 nM on MetRS (S. aureus). Further, the concentration for a half-maximal effect (EC50) in the test with L. amaz was determined as 4350 nM; with T. cruzi it was 1470 nM; with T. brucei (setting [2]), 38.7 nM.

With `Clc1cc(Cl)cc(CNCCNc2nc3ccc(Cl)nc3[nH]2)c1` [Compound 1849, [2-({5-chloro-3H-imidazo[4,5-b]pyridin-2-yl}amino)ethyl][(3,5-dichlorophenyl)methyl]amine], the IC50 on MetRS (T. brucei) worked out at 33 nM; at MetRS (S. aureus), 3110 nM. Also, the concentration giving a half-maximal response (EC50) is 1810 nM in the test on T. cruzi and 60.7 nM in the test on T. brucei (setting [2]).

In the case of `C[C@@H](Cc1nc2ccc(Cl)cc2[nH]1)NCc1cc(Cl)cc(Cl)c1` [Compound 1805, [(2S)-1-(6-chloro-1H-1,3-benzodiazol-2-yl)propan-2-yl][(3,5-dichlorophenyl)methyl]amine], the IC50 at MetRS (T. brucei) is 56 nM and 27 nM; at MetRS (S. aureus) it was over 1000 nM. Moreover, the EC50 is 5610 nM in the test with T. cruzi and 1690 nM in the test on T. brucei (setting [2]).

With `FC(F)(CNCc1cc(Cl)cc(Cl)c1)CNc1nc2cccnc2[nH]1` [Compound 1708, [(3,5-dichlorophenyl)methyl][2,2-difluoro-3-({3H-imidazo[4,5-b]pyridin-2-yl}amino)propyl]amme], the IC50 is 11 nM against MetRS (T. brucei) and 88 nM on MetRS (S. aureus). The EC50 with L. amaz was over 1000 nM; with T. cruzi, over 5000 nM; with T. brucei (setting [2]), 1560 nM; in the test with T. brucei (read-out: B) T. brucei EC50), 893 nM.
